{
  "source": "paper PMC12401824",
  "about": "“Studies on the impact of modifications at the Gln-Trp site in RM2-based GRPR ligands” (EJNMMI Research, 2025)",
  "key": {"[1]": {"system": "PC-3 tumor xenograft", "assay": "Biodistribution in PC-3 tumor-bearing CB17-SCID mice", "format": "in vivo", "details": "^68Ga-labeled; 1 h p.i.; n = 4", "description": "(§1) To establish tumor xenografts, PC-3 cells (5.0 × 10^6 cells per 200 µL) were suspended in a 1/1 mixture (v/v) of Dulbecco’s modified eagle's medium/Ham’s F-12 with Glutamax-I (v/v = 1/1) and Cultrex® Basement Membrane Matrix Type 3 (Trevigen Inc., Gaithersburg, MD, USA) and inoculated subcutaneously onto the right shoulder of CB17-SCID mice (Charles River Laboratories International Inc., Sulzfeld, Germany). Mice (n = 4) were used for experiments when tumor volume has reached 125–500 mm^3 (2–3 weeks after inoculation).\n(§2) Biodistribution. […] (n = 4), respectively. Selected organs were removed, weighted and measured in a γ-counter."}, "[2]": {"assay": "Biodistribution in PC-3 tumor-bearing CB17-SCID mice", "format": "in vivo", "details": "mouse, 100 pmol, ^68Ga-labeled, 1 h p.i., n = 4; for tissue to tissue ratio at 1 h: CB17-SCID, iv, total radioactivity; for tissue uptake at 1 h: intravenous", "description": "as §1, §2"}, "[3]": {"details": "tumor and blood, read-out: Tumor-to-Blood ratio"}, "[4]": {"details": "tumor and bone, read-out: Tumor-to-Bone ratio"}, "[5]": {"details": "tumor and heart, read-out: Tumor-to-Heart ratio"}, "[6]": {"details": "tumor and intestine, read-out: Tumor-to-Intestine ratio"}, "[7]": {"details": "tumor and kidney, read-out: Tumor-to-Kidney ratio"}, "[8]": {"details": "tumor and liver, read-out: Tumor-to-Liver ratio"}, "[9]": {"details": "tumor and lung, read-out: Tumor-to-Lung ratio"}, "[10]": {"details": "tumor and muscle, read-out: Tumor-to-Muscle ratio"}, "[11]": {"details": "tumor and pancreas, read-out: Tumor-to-Pancreas ratio"}, "[12]": {"details": "tumor and spleen, read-out: Tumor-to-Spleen ratio"}, "[13]": {"details": "tumor and stomach, read-out: Tumor-to-Stomach ratio"}, "[14]": {"details": "adrenal, read-out: Uptake in Adrenal"}, "[15]": {"details": "blood, read-out: Uptake in Blood"}, "[16]": {"details": "heart, read-out: Uptake in Heart"}, "[17]": {"details": "intestine, read-out: Uptake in Intestine"}, "[18]": {"details": "kidney, read-out: Uptake in Kidney"}, "[19]": {"details": "liver, read-out: Uptake in Liver"}, "[20]": {"details": "muscle, read-out: Uptake in Muscle"}, "[21]": {"details": "pancreas, read-out: Uptake in Pancreas"}, "[22]": {"details": "spleen, read-out: Uptake in Spleen"}, "[23]": {"details": "stomach, read-out: Uptake in Stomach"}, "[24]": {"details": "tumor, read-out: Uptake in Tumor"}},
  "note": "Read-outs that look alike come from different tables or passages of the source. Starred links: 1 amine or outer side, 2 acyl side, 3 side chain; linkers in the order of their positions; H or OH if unused. Non-standard residues stand in square brackets, D forms with d. Residues, ends and D or L forms follow the SMILES beside them. *: point of attachment. DOTA = O=C(O)CN1CCN(CC(=O)O)CCN(CC(=O)*)CCN(CC(=O)O)CC1; Sta = CC(C)C[C@H](N)[C@@H](O)CC(=O)O; Bta = N[C@@H](Cc1csc2ccccc12)C(=O)O; X1 = O=C(CN1CCC(N[*:1])CC1)[*:2]; hSer = N[C@@H](CCO)C(=O)O",
  "data": [
    {"compound": "CC(C)C[C@H](NC(=O)C[C@H](O)[C@H](CC(C)C)NC(=O)[C@H](Cc1c[nH]cn1)NC(=O)CNC(=O)[C@@H](NC(=O)[C@H](C)NC(=O)[C@H](Cc1c[nH]c2ccccc12)NC(=O)[C@H](CCO)NC(=O)[C@@H](Cc1ccccc1)NC(=O)CN1CCC(NC(=O)CN2CCN(CC(=O)O)CCN(CC(=O)O)CCN(CC(=O)O)CC2)CC1)C(C)C)C(N)=O", "note": "[[^68Ga]Ga-[Hse^7]RM2, metal not drawn] ({DOTA}-[X1][dF][hSer]WAVGH[Sta]L-NH2)", "values": [
      {"measurement": "Tumor-to-Adrenal ratio", "setting": "[1]", "result": "1.4 ± 1.1"},
      {"measurement": "tissue to tissue ratio at 1 h", "setting": "[2]; [3]", "result": "1.9 ± 0.1"},
      {"measurement": "tissue to tissue ratio at 1 h", "setting": "[2]; [4]", "result": "7.8 ± 0.7"},
      {"measurement": "tissue to tissue ratio at 1 h", "setting": "[2]; [5]", "result": "6 ± 0.9"},
      {"measurement": "tissue to tissue ratio at 1 h", "setting": "[2]; [6]", "result": "5 ± 0.3"},
      {"measurement": "tissue to tissue ratio at 1 h", "setting": "[2]; [7]", "result": "2.2 ± 0.2"},
      {"measurement": "tissue to tissue ratio at 1 h", "setting": "[2]; [8]", "result": "5.1 ± 0.5"},
      {"measurement": "tissue to tissue ratio at 1 h", "setting": "[2]; [9]", "result": "3.3 ± 0.6"},
      {"measurement": "tissue to tissue ratio at 1 h", "setting": "[2]; [10]", "result": "22.8 ± 3.4"},
      {"measurement": "tissue to tissue ratio at 1 h", "setting": "[2]; [11]", "result": "0.9 ± 0.1"},
      {"measurement": "tissue to tissue ratio at 1 h", "setting": "[2]; [12]", "result": "5 ± 0.7"},
      {"measurement": "tissue to tissue ratio at 1 h", "setting": "[2]; [13]", "result": "4.1 ± 0.3"},
      {"measurement": "tissue uptake at 1 h", "setting": "[2]; [14]", "result": "2.47 ± 0.3", "unit": "%ID/g"},
      {"measurement": "tissue uptake at 1 h", "setting": "[2]; [15]", "result": "3.92 ± 0.07", "unit": "%ID/g"},
      {"measurement": "tissue uptake at 1 h", "setting": "[2]; bone, read-out: Uptake in Bone", "result": "0.98 ± 0.12", "unit": "%ID/g"},
      {"measurement": "tissue uptake at 1 h", "setting": "[2]; [16]", "result": "1.29 ± 0.14", "unit": "%ID/g"},
      {"measurement": "tissue uptake at 1 h", "setting": "[2]; [17]", "result": "1.52 ± 0.1", "unit": "%ID/g"},
      {"measurement": "tissue uptake at 1 h", "setting": "[2]; [18]", "result": "3.51 ± 0.2", "unit": "%ID/g"},
      {"measurement": "tissue uptake at 1 h", "setting": "[2]; [19]", "result": "1.49 ± 0.06", "unit": "%ID/g"},
      {"measurement": "tissue uptake at 1 h", "setting": "[2]; lung, read-out: Uptake in Lung", "result": "2.33 ± 0.28", "unit": "%ID/g"},
      {"measurement": "tissue uptake at 1 h", "setting": "[2]; [20]", "result": "0.34 ± 0.04", "unit": "%ID/g"},
      {"measurement": "tissue uptake at 1 h", "setting": "[2]; [21]", "result": "< 8", "unit": "%ID/g"},
      {"measurement": "tissue uptake at 1 h", "setting": "[2]; [22]", "result": "1.55 ± 0.15", "unit": "%ID/g"},
      {"measurement": "tissue uptake at 1 h", "setting": "[2]; [23]", "result": "1.88 ± 0.06", "unit": "%ID/g"},
      {"measurement": "tissue uptake at 1 h", "setting": "[2]; [24]", "result": "~7.5", "unit": "%ID/g"}
    ]},
    {"compound": "CC(C)C[C@H](NC(=O)C[C@H](O)[C@H](CC(C)C)NC(=O)[C@H](Cc1c[nH]cn1)NC(=O)CNC(=O)[C@@H](NC(=O)[C@H](C)NC(=O)[C@H](Cc1csc2ccccc12)NC(=O)[C@H](CCC(N)=O)NC(=O)[C@@H](Cc1ccccc1)NC(=O)CN1CCC(NC(=O)CN2CCN(CC(=O)O)CCN(CC(=O)O)CCN(CC(=O)O)CC2)CC1)C(C)C)C(N)=O", "note": "[[^68Ga]Ga-[Bta^8]RM2, metal not drawn] ({DOTA}-[X1][dF]Q[Bta]AVGH[Sta]L-NH2)", "values": [
      {"measurement": "Tumor-to-Adrenal ratio", "setting": "[1]", "result": "13.3 ± 17.2"},
      {"measurement": "tissue to tissue ratio at 1 h", "setting": "[2]; [3]", "result": "7.6 ± 2.6"},
      {"measurement": "tissue to tissue ratio at 1 h", "setting": "[2]; [4]", "result": "29.5 ± 8.2"},
      {"measurement": "tissue to tissue ratio at 1 h", "setting": "[2]; [5]", "result": "19.8 ± 5"},
      {"measurement": "tissue to tissue ratio at 1 h", "setting": "[2]; [6]", "result": "12.2 ± 4.5"},
      {"measurement": "tissue to tissue ratio at 1 h", "setting": "[2]; [7]", "result": "3.3 ± 0.6"},
      {"measurement": "tissue to tissue ratio at 1 h", "setting": "[2]; [8]", "result": "10.7 ± 2.3"},
      {"measurement": "tissue to tissue ratio at 1 h", "setting": "[2]; [9]", "result": "8.8 ± 3"},
      {"measurement": "tissue to tissue ratio at 1 h", "setting": "[2]; [10]", "result": "50.6 ± 19.4"},
      {"measurement": "tissue to tissue ratio at 1 h", "setting": "[2]; [11]", "result": "1.9 ± 1.3"},
      {"measurement": "tissue to tissue ratio at 1 h", "setting": "[2]; [12]", "result": "18.7 ± 6.9"},
      {"measurement": "tissue to tissue ratio at 1 h", "setting": "[2]; [13]", "result": "7.1 ± 0.7"},
      {"measurement": "tissue uptake at 1 h", "setting": "[2]; [14]", "result": "1.95 ± 1.3", "unit": "%ID/g"},
      {"measurement": "tissue uptake at 1 h", "setting": "[2]; [15]", "result": "1.07 ± 0.27", "unit": "%ID/g"},
      {"measurement": "tissue uptake at 1 h", "setting": "[2]; bone, read-out: Uptake in Bone", "result": "0.3 ± 0.15", "unit": "%ID/g"},
      {"measurement": "tissue uptake at 1 h", "setting": "[2]; [16]", "result": "0.4 ± 0.1", "unit": "%ID/g"},
      {"measurement": "tissue uptake at 1 h", "setting": "[2]; [17]", "result": "0.66 ± 0.14", "unit": "%ID/g"},
      {"measurement": "tissue uptake at 1 h", "setting": "[2]; [18]", "result": "2.33 ± 0.25", "unit": "%ID/g"},
      {"measurement": "tissue uptake at 1 h", "setting": "[2]; [19]", "result": "0.73 ± 0.17", "unit": "%ID/g"},
      {"measurement": "tissue uptake at 1 h", "setting": "[2]; lung, read-out: Uptake in Lung", "result": "0.92 ± 0.22", "unit": "%ID/g"},
      {"measurement": "tissue uptake at 1 h", "setting": "[2]; [20]", "result": "0.19 ± 0.11", "unit": "%ID/g"},
      {"measurement": "tissue uptake at 1 h", "setting": "[2]; [21]", "result": "< 8", "unit": "%ID/g"},
      {"measurement": "tissue uptake at 1 h", "setting": "[2]; [22]", "result": "0.46 ± 0.16", "unit": "%ID/g"},
      {"measurement": "tissue uptake at 1 h", "setting": "[2]; [23]", "result": "1.07 ± 0.14", "unit": "%ID/g"},
      {"measurement": "tissue uptake at 1 h", "setting": "[2]; [24]", "result": "~7.5", "unit": "%ID/g"}
    ]}
  ]
}
